Reference: the supplement of paper PMC13380429

How the values were obtained:
Conditions in all cases: 72 h
Caco-2 [1] = experiment: cell viability relative to DMSO; higher = less toxic
Calu-3 [2] = experiment: as above
HepG2 [3] = experiment: as above
U2OS [4] = experiment: as above
Vero E6 [5] = experiment: as above
Caco-2 [6] = experiment: relative viability EC50 (midpoint between 100% and the lowest measured viability); higher = less toxic
Calu-3 [7] = experiment: as above
HepG2 [8] = experiment: as above
U2OS [9] = experiment: as above
Vero E6 [10] = experiment: as above
Caco-2 [11] = experiment: drug sensitivity score (DSS) for viability; higher = more toxic; extreme values may be limits of the assay
Calu-3 [12] = experiment: as above
HepG2 [13] = experiment: as above
U2OS [14] = experiment: as above
Vero E6 [15] = experiment: as above

Row | Structure (SMILES) | cell viability (Caco-2 [1]; 1 nM) [%] | cell viability (Caco-2 [1]; 10 nM) [%] | cell viability (Caco-2 [1]; 100 nM) [%] | cell viability (Caco-2 [1]; 1000 nM) [%] | cell viability (Caco-2 [1]; 10000 nM) [%] | cell viability (Calu-3 [2]; 1 nM) [%] | cell viability (Calu-3 [2]; 10 nM) [%] | cell viability (Calu-3 [2]; 100 nM) [%] | cell viability (Calu-3 [2]; 1000 nM) [%] | cell viability (Calu-3 [2]; 10000 nM) [%] | cell viability (HepG2 [3]; 1 nM) [%] | cell viability (HepG2 [3]; 10 nM) [%] | cell viability (HepG2 [3]; 100 nM) [%] | cell viability (HepG2 [3]; 1000 nM) [%] | cell viability (HepG2 [3]; 10000 nM) [%] | cell viability (U2OS [4]; 1 nM) [%] | cell viability (U2OS [4]; 10 nM) [%] | cell viability (U2OS [4]; 100 nM) [%] | cell viability (U2OS [4]; 1000 nM) [%] | cell viability (U2OS [4]; 10000 nM) [%] | cell viability (Vero E6 [5]; 1 nM) [%] | cell viability (Vero E6 [5]; 10 nM) [%] | cell viability (Vero E6 [5]; 100 nM) [%] | cell viability (Vero E6 [5]; 1000 nM) [%] | cell viability (Vero E6 [5]; 10000 nM) [%] | relative viability EC50 (Caco-2 [6]) [µM] | relative viability EC50 (Calu-3 [7]) [µM] | relative viability EC50 (HepG2 [8]) [µM] | relative viability EC50 (U2OS [9]) [µM] | relative viability EC50 (Vero E6 [10]) [µM] | drug sensitivity score (Caco-2 [11]) | drug sensitivity score (Calu-3 [12]) | drug sensitivity score (HepG2 [13]) | drug sensitivity score (U2OS [14]) | drug sensitivity score (Vero E6 [15])
1 | COc1cc(N)c(Cl)cc1C(=O)OCCN1CCCCC1 | 88.3 | 97.6 | 86 | 100 | 110 | 93.8 | 108 | 102 | 103 | 102 | 112 | 96.9 | 106 | 94.9 | 103 | 93.9 | 99 | 95.5 | 100 | 108 | 96.3 | 97.3 | 98.7 | 99.3 | 99.5 | > 10 | > 10 | > 10 | > 10 | > 10 | 0 | 0 | 0 | 0 | 0
2 | N#CC1(c2ccc(NC(=O)c3cccnc3NCc3ccncc3)cc2)CCCC1 [apatinib] | 92.3 | 94.1 | 93.5 | 101 | 94.1 | 92.9 | 94.5 | 104 | 97.5 | 104 | 103 | 105 | 107 | 89.5 | 77.8 | 97.4 | 104 | 98 | 99.2 | 99.6 | 96.5 | 92 | 98.3 | 97.1 | 109 | > 10 | > 10 | > 10 | > 10 | > 10 | 0 | 0 | 1.9 | 0 | 0
3 | NC(=O)N1C(=O)/C(=C(\O)c2cccs2)c2cc(Cl)ccc21 [tenidap] | 98.3 | 94.6 | 97.1 | 94 | 91.6 | 109 | 97 | 85.4 | 108 | 99.9 | 98.4 | 110 | 98.8 | 106 | 99.9 | 99.6 | 98.3 | 93.3 | 102 | 99 | 102 | 103 | 94.6 | 93.1 | 99 | > 10 | > 10 | > 10 | > 10 | > 10 | 0 | 0 | 0 | 0 | 0
4 | O=c1ccc2cc(O[C@@H]3O[C@H](CO)[C@@H](O)[C@H](O)[C@H]3O)c(O)cc2o1 [esculin] | 93 | 105 | 91.7 | 102 | 99.6 | 95.4 | 101 | 91 | 96 | 107 | 104 | 97.3 | 97.4 | 101 | 96 | 100 | 99.4 | 96.8 | 103 | 98.2 | 105 | 98.8 | 102 | 95.4 | 104 | > 10 | > 10 | > 10 | > 10 | > 10 | 0 | 0 | 0 | 0 | 0
5 | CC/C(=C(/CC)c1ccc(OP(=O)(O)O)cc1)c1ccc(OP(=O)(O)O)cc1 [fosfestrol] | 84.6 | 93.5 | 97.2 | 94.5 | 104 | 87 | 84.9 | 92.5 | 108 | 117 | 102 | 97.6 | 105 | 97.1 | 107 | 93.4 | 105 | 102 | 102 | 105 | 94.2 | 92.8 | 92.4 | 94.8 | 108 | > 10 | > 10 | > 10 | > 10 | > 10 | 0 | 0 | 0 | 0 | 0
6 | Cc1oc(=O)oc1COC(=O)C1=C([C@H]2CCCO2)S[C@@H]2[C@@H]([C@@H](C)O)C(=O)N12 [faropenem-medoxomil] | 95.6 | 93.4 | 96.8 | 93.2 | 97.9 | 99.3 | 94.7 | 102 | 93 | 98.8 | 103 | 99.2 | 98.1 | 95.1 | 100 | 98.8 | 96.3 | 98.3 | 98.2 | 99.9 | 94.7 | 94.1 | 97.6 | 92.4 | 97.9 | > 10 | > 10 | > 10 | > 10 | > 10 | 0 | 0 | 0 | 0 | 0
7 | c1ccc([C@H]2CNCc3ccccc32)cc1 [4-phenyl-1,2,3,4-tetrahydroisoquinoline] | 98.1 | 109 | 97.3 | 103 | 103 | 101 | 109 | 92.3 | 102 | 105 | 101 | 91.7 | 103 | 104 | 96.7 | 99.9 | 101 | 94.1 | 94.9 | 100 | 96.7 | 99.4 | 100 | 99.6 | 98.8 | > 10 | > 10 | > 10 | > 10 | > 10 | 0 | 0 | 0 | 0 | 0
8 | O=C(O)Cc1ccc(OCc2ccccc2)c(Cl)c1 [benzofenac] | 96.9 | 114 | 112 | 104 | 107 | 97.6 | 109 | 98.9 | 111 | 93.4 | 98.5 | 92.7 | 94.3 | 87.1 | 93.8 | 98.2 | 98.2 | 99.3 | 100 | 94.4 | 103 | 105 | 106 | 99.6 | 96.1 | > 10 | > 10 | > 10 | > 10 | > 10 | 0 | 0 | 0 | 0 | 0
9 | CCCCCCCC/C=C\CCCCCCCC(=O)NCCO [oleoylethanolamide] | 86.2 | 99.2 | 92.3 | 104 | 106 | 97.2 | 101 | 97.1 | 102 | 101 | 92.1 | 96.1 | 103 | 90.2 | 104 | 99.8 | 100 | 97 | 103 | 103 | 106 | 102 | 105 | 96.4 | 103 | > 10 | > 10 | > 10 | > 10 | > 10 | 0 | 0 | 0 | 0 | 0
10 | NC(=O)C(c1ccccc1)(c1ccc(F)cc1)c1ccc(F)cc1 [senicapoc] | 101 | 105 | 102 | 92.4 | 99.4 | 99 | 96.7 | 99 | 102 | 92.3 | 93.4 | 98.8 | 96.4 | 95.5 | 97.7 | 102 | 96.9 | 104 | 98.8 | 98.8 | 96.9 | 99.1 | 94.5 | 97.3 | 92.9 | > 10 | > 10 | > 10 | > 10 | > 10 | 0 | 0 | 0 | 0 | 0
11 | CO[C@H]1CC=C2CCN3CCC4=C(CC(=O)OC4)[C@]23C1 [NSC-9965] | 100 | 99.6 | 101 | 105 | 108 | 101 | 102 | 94.3 | 101 | 111 | 99.9 | 95 | 100 | 100 | 104 | 101 | 105 | 98.2 | 106 | 108 | 92.5 | 95.8 | 95 | 91.6 | 105 | > 10 | > 10 | > 10 | > 10 | > 10 | 0 | 0 | 0 | 0 | 0
12 | CC(=O)NCCc1c(Cc2ccccc2)[nH]c2ccccc12 [luzindole] | 97.4 | 105 | 106 | 103 | 102 | 98.6 | 102 | 105 | 104 | 96.2 | 103 | 99.9 | 104 | 95.5 | 110 | 102 | 103 | 100 | 104 | 96.9 | 95.9 | 99 | 95.1 | 94.6 | 97.4 | > 10 | > 10 | > 10 | > 10 | > 10 | 0 | 0 | 0 | 0 | 0
13 | O=C(Nc1ccc(S(=O)(=O)Nc2ccccc2Cl)c(Cl)c1)c1ccccn1 | 95.7 | 88.6 | 104 | 101 | 89.8 | 108 | 91.9 | 89.8 | 87.3 | 98.2 | 99.3 | 99.8 | 91.4 | 101 | 103 | 94.8 | 93.7 | 103 | 97.8 | 98.6 | 91.6 | 96.7 | 93.6 | 101 | 105 | > 10 | > 10 | > 10 | > 10 | > 10 | 0 | 1.8 | 0 | 0 | 0
14 | Cc1nccn1CCC(C(N)=O)(c1ccccc1)c1ccccc1 [imidafenacin] | 99.4 | 91.8 | 92.8 | 87.3 | 93.4 | 106 | 107 | 106 | 97.9 | 102 | 101 | 97.3 | 97.5 | 95 | 92.5 | 99 | 94 | 101 | 96.4 | 96.5 | 97.9 | 100 | 95.5 | 99.2 | 97.2 | > 10 | > 10 | > 10 | > 10 | > 10 | 0.1 | 0 | 0 | 0 | 0
